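48-hour exposure; five concentrations; linearly interpolated endpoints. GI50 marks 50% less growth. TGI marks complete inhibition of growth.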 Where a SMILES comes first, the peptide text is derived from it. [ ]: non-standard residue; d: D form. The star is where a group is joined. X13 = OC[C@H](CC1CCCCC1)N*; dIva = CC[C@@](C)(N)C(=O)O; Aib = CC(C)(N)C(=O)O
What was measured:
Assay in all cases: inhibition of tumour cell growth, NCI panel, 48 h
[1] = tested on: A498 renal
[2] = tested on: A549 NSCLC
[3] = tested on: ACHN renal
[4] = tested on: CCRF-CEM leukemia
[5] = tested on: COLO 205 colon
[6] = tested on: EKVX NSCLC
[7] = tested on: HCC-2998 colon
[8] = tested on: HCT-15 colon
[9] = tested on: HL-60(TB) leukemia
[10] = tested on: HOP-62 NSCLC
[11] = tested on: HOP-92 NSCLC
[12] = tested on: HS 578T breast
[13] = tested on: HT29 colon
[14] = tested on: IGROV1 ovarian
[15] = tested on: K-562 leukemia
[16] = tested on: KM12 colon
[17] = tested on: LOX IMVI melanoma
[18] = tested on: MALME-3M melanoma
[19] = tested on: MCF7 breast
[20] = tested on: MDA-MB-231 breast
[21] = tested on: MDA-MB-435
[22] = tested on: MOLT-4 leukemia
[23] = tested on: NCI-H226 lung
[24] = tested on: NCI-H23 lung
[25] = tested on: NCI-H460 lung
[26] = tested on: NCI-H522 lung
[27] = tested on: NCI/ADR-RES ovarian
[28] = tested on: OVCAR-3 ovarian
[29] = tested on: OVCAR-4 ovarian
[30] = tested on: OVCAR-5 ovarian
[31] = tested on: OVCAR-8 ovarian
[32] = tested on: PC-3 prostate
[33] = tested on: RPMI-8226 leukemia
[34] = tested on: RXF 393 renal
[35] = tested on: SF-268 CNS
[36] = tested on: SF-295 CNS
[37] = tested on: SF-539 CNS
[38] = tested on: SK-MEL-2 melanoma
[39] = tested on: SK-MEL-28 melanoma
[40] = tested on: SK-MEL-5 melanoma
[41] = tested on: SK-OV-3 ovarian
[42] = tested on: SN12C renal
[43] = tested on: SNB-19 CNS
[44] = tested on: SNB-75 CNS
[45] = tested on: SR leukemia
[46] = tested on: SW-620 colon
[47] = tested on: T-47D breast
[48] = tested on: TK-10 renal
[49] = tested on: U251 CNS
[50] = tested on: UACC-257 melanoma
[51] = tested on: UACC-62 melanoma
[52] = tested on: UO-31 renal

CC[C@@](C)(NC(=O)C(C)(C)NC(=O)[C@@H](NC(=O)[C@@H]1CCCN1C(=O)C(C)(C)NC(=O)[C@H](CC(C)C)NC(=O)CNC(=O)C(C)(C)NC(=O)[C@@H](NC(=O)C(C)(C)NC(=O)[C@H](CCC(N)=O)NC(=O)[C@H](C)NC(=O)C(C)(C)NC(=O)[C@H](C)NC(=O)C(C)(C)NC(=O)[C@H](C)NC(=O)C(C)(C)NC(C)=O)C(C)C)C(C)C)C(=O)N[C@@H](CCC(N)=O)C(=O)N[C@@H](CCC(N)=O)C(=O)N[C@H](CO)CC1CCCCC1 (Ac-[Aib]A[Aib]A[Aib]AQ[Aib]V[Aib]GL[Aib]PV[Aib][dIva]QQ-X13)
GI50 [1]: 1390 nM | TGI [1]: > 5000 nM | GI50 [2]: 3000 nM | TGI [2]: > 5000 nM | GI50 [3]: > 5000 nM | TGI [3]: > 5000 nM | GI50 [4]: 2790 nM | TGI [4]: > 5000 nM | GI50 [5]: 1470 nM | TGI [5]: > 5000 nM | GI50 [6]: > 5000 nM | TGI [6]: > 5000 nM | GI50 [7]: 2040 nM | TGI [7]: > 5000 nM | GI50 [8]: > 5000 nM | TGI [8]: > 5000 nM | GI50 [9]: 1440 nM | TGI [9]: 4020 nM | GI50 [10]: > 5000 nM | TGI [10]: > 5000 nM | GI50 [11]: 854 nM | TGI [11]: 3380 nM | GI50 [12]: 1810 nM | TGI [12]: > 5000 nM | GI50 [13]: 2250 nM | TGI [13]: > 5000 nM | GI50 [14]: 2650 nM | TGI [14]: > 5000 nM | GI50 [15]: 1780 nM | TGI [15]: > 5000 nM | GI50 [16]: 1890 nM | TGI [16]: > 5000 nM | GI50 [17]: 1490 nM | TGI [17]: > 5000 nM | GI50 [18]: 1180 nM | TGI [18]: 3980 nM | GI50 [19]: 281 nM | TGI [19]: > 5000 nM | GI50 [20]: 1530 nM | TGI [20]: > 5000 nM | GI50 [21]: 1550 nM | TGI [21]: > 5000 nM | GI50 [22]: 2650 nM | TGI [22]: > 5000 nM | GI50 [23]: > 5000 nM | TGI [23]: > 5000 nM | GI50 [24]: 1060 nM | TGI [24]: > 5000 nM | GI50 [25]: 1600 nM | TGI [25]: > 5000 nM | GI50 [26]: 1280 nM | TGI [26]: > 5000 nM | GI50 [27]: > 5000 nM | TGI [27]: > 5000 nM | GI50 [28]: 1250 nM | TGI [28]: > 5000 nM | GI50 [29]: 2820 nM | TGI [29]: > 5000 nM | GI50 [30]: 2840 nM | TGI [30]: > 5000 nM | GI50 [31]: > 5000 nM | TGI [31]: > 5000 nM | GI50 [32]: 1320 nM | TGI [32]: > 5000 nM | GI50 [33]: 198 nM | TGI [33]: 1870 nM | GI50 [34]: 1750 nM | TGI [34]: > 5000 nM | GI50 [35]: 1740 nM | TGI [35]: > 5000 nM | GI50 [36]: > 5000 nM | TGI [36]: > 5000 nM | GI50 [37]: 1490 nM | TGI [37]: > 5000 nM | GI50 [38]: 1220 nM | TGI [38]: 3830 nM | GI50 [39]: 2040 nM | TGI [39]: > 5000 nM | GI50 [40]: 1310 nM | TGI [40]: 4840 nM | GI50 [41]: 1890 nM | TGI [41]: > 5000 nM | GI50 [42]: 460 nM | TGI [42]: > 5000 nM | GI50 [43]: 1380 nM | TGI [43]: > 5000 nM | GI50 [44]: 1240 nM | TGI [44]: > 5000 nM | GI50 [45]: 2010 nM | TGI [45]: > 5000 nM | GI50 [46]: 3650 nM | TGI [46]: > 5000 nM | GI50 [47]: 1560 nM | TGI [47]: > 5000 nM | GI50 [48]: > 5000 nM | TGI [48]: > 5000 nM | GI50 [49]: 1490 nM | TGI [49]: > 5000 nM | GI50 [50]: 1000 nM | TGI [50]: 4410 nM | GI50 [51]: 1860 nM | TGI [51]: > 5000 nM | GI50 [52]: > 5000 nM | TGI [52]: > 5000 nM

Source: PubChem BioAssay (NCI)
